# Experimental data as given in patent publication US12617831B2 (UNIVERSITE D'ANGERS, priority 2019, dated 2026).
# Tests used:
# Murine MC3T3-E1 cells = assay: Collagen maturity assay in MC3T3-E1 cultures (Example 2); assay type: cell-based; conditions: MC3T3-E1 cultures (FIGS. 5-7)
# Method: At confluence, the propagation medium was replaced by the differentiation medium containing αMEM supplemented with 5% FBS, 5% bovine calf serum, 100 U/mL penicillin, 100 μg/mL streptomycin, 50 μg/ml ascorbic acid and various concentrations of analogues. This day was considered as day 1. The differentiation medium was replenished every two days. […] Cultures were rinsed at least six times with milliQ water, fixed in absolute ethanol, scrapped off the culture dish and transferred onto BaF2 windows where they were air-dried. Integrity of the collagen extracellular matrix was verified by comparing the obtained Fourier transform infrared spectrum with those of commercial collagen. Spectral analysis was performed using a Bruker Vertex 70 spectrometer (Bruker optics, Ettlingen, Germany) interfaced with a Bruker Hyperion 3000 infrared microscope equipped with a standard single element Mercury Cadmium Telluride (MCT) detector. Infrared spectra were recorded at a resolution of 4 cm^−1, with an average of 32 scans in transmission mode. Background spectral images were collected under identical conditions from the same BaF2 windows at the beginning and end of each experiment to ensure instrument stability. At least 20 spectra were acquired for each condition and analyzed with a lab-made routine script in Matlab R2016b (The Mathworks, Natick, MA).
# [1] = system: MC3T3-E1 subclone 4 cells; assay type: cell-based, murine
# Method: Briefly, MC3T3-E1 subclone 4 cells have been grown and propagated in α-MEM supplemented with 5% fetal bovine serum (FBS), 5% bovine calf serum (BCS), 100 U/mL penicillin, and 100 μg/mL streptomycin in a humidified atmosphere enriched with 5% CO2 at 37° C. […] This day was considered as day 1. The differentiation medium was replenished every two days. […] Cultures were rinsed at least six times with milliQ water, fixed in absolute ethanol, scrapped off the culture dish and transferred onto BaF2 windows where they were air-dried. Integrity of the collagen extracellular matrix was verified by comparing the obtained Fourier transform infrared spectrum with those of commercial collagen. Spectral analysis was performed using a Bruker Vertex 70 spectrometer (Bruker optics, Ettlingen, Germany) interfaced with a Bruker Hyperion 3000 infrared microscope equipped with a standard single element Mercury Cadmium Telluride (MCT) detector. Calibration of the infrared spectrometer is done once a week with a polystyrene film standard (Bruker optics). Infrared spectra were recorded at a resolution of 4 cm^-1, with an average of 32 scans in transmission mode. Background spectral images were collected under identical conditions from the same BaF2 windows at the beginning and end of each experiment to ensure instrument stability. At least 5 spectra were acquired for each condition and analyzed with a lab-made routine script (version 2.0) in Matlab R2016b (The Mathworks, Natick, MA). […] For GIP and GLP-2 dataset, the inventors used the collagen maturity data previously acquired and analyzed. First of all, collagen maturity obtained in control cultures, i.e. in the absence of double GIP/GLP-2 analogues, were averaged and subtracted to the all dataset. […] For each concentration of peptide, the mean, SD and number of events were computed. […] The GraphPad Prism analysis consisted in: […] Statistical Analysis […] Data are represented as mean±SD.
# Murine Raw 264.7 cells = assay type: cell-based
# Method: Murine Raw 264.7 cells were grown and expanded in propagation medium containing Dulbecco's modified Eagle medium (DMEM-Gibco) supplemented with 10% fetal bovine serum (FBS-Lonza), 100 U/mL penicillin and 100 μg/mL streptomycin (Gibco) in a humidified atmosphere enriched with 5% CO2 at 37° C. The first passage after thawing Raw 264.7 cells was considered as passage 1. Cells were used up to passage 8. […] Cultures were rinsed three times in distilled water and the residual activity was inhibited by 4% NaF (Sigma-Aldrich) for 30 min. Cells were then rinsed in distilled water and allowed to dry. TRAcP positive cells, with more than three nuclei, were identified as osteoclasts. The number of newly generated osteoclasts was assessed using light microscopic examination by a histologist that was blinded to the treatment intervention. […] For each concentration of peptide, the mean, SD and number of events were computed.
compound,measurement,setting,value
CC[C@H](C)[C@H](NC(=O)[C@H](CO)NC(=O)[C@H](CCSC)NC(=O)[C@H](CC(=O)O)NC(=O)[C@H](CO)NC(=O)CNC(=O)[C@H](Cc1ccccc1)NC(=O)[C@H](CO)NC(=O)CNC(=O)[C@H](CCC(=O)O)NC(=O)CNC(=O)[C@@H](N)Cc1c[nH]cn1)C(=O)N[C@@H](C)C(=O)N[C@@H](CC(C)C)C(=O)N[C@@H](CC(=O)O)C(=O)N[C@@H](CCCCN)C(=O)N[C@@H](CC(C)C)C(=O)N[C@@H](C)C(=O)N[C@@H](C)C(=O)N[C@@H](CCCNC(=N)N)C(=O)N[C@@H](CC(=O)O)C(=O)N[C@@H](Cc1ccccc1)C(=O)N[C@H](C(=O)N[C@@H](CC(N)=O)C(=O)N[C@@H](Cc1c[nH]c2ccccc12)C(=O)N[C@@H](CC(C)C)C(=O)N[C@@H](CC(C)C)C(=O)N[C@@H](CCC(N)=O)C(=O)N[C@H](C(=O)N[C@@H](CCCCN)C(=O)N[C@H](C(=O)N[C@H](C(=O)N[C@@H](CC(=O)O)C(=O)NCC(=O)N[C@@H](C)C(=O)N[C@@H](C)C(=O)N[C@@H](CC(=O)O)C(=O)N[C@@H](CC(=O)O)C(=O)N[C@@H](CC(=O)O)C(=O)N[C@@H](CC(=O)O)C(=O)N[C@@H](CC(=O)O)C(=O)N[C@@H](CC(=O)O)C(N)=O)[C@@H](C)O)[C@@H](C)CC)[C@@H](C)O)C(C)C [GL-0001-Tag],profile of collagen maturity versus concentration,Murine MC3T3-E1 cells,biphasic profile
CC[C@H](C)[C@H](NC(=O)[C@H](CO)NC(=O)[C@H](CCSC)NC(=O)[C@H](CC(=O)O)NC(=O)[C@H](CO)NC(=O)[C@@H](NC(=O)[C@H](Cc1ccccc1)NC(=O)[C@H](CO)NC(=O)CNC(=O)[C@H](CCC(=O)O)NC(=O)CNC(=O)[C@@H](N)Cc1c[nH]cn1)C(C)C)C(=O)N[C@H](C(=O)N[C@@H](CC(C)C)C(=O)N[C@@H](CC(=O)O)C(=O)N[C@@H](CCCCN)C(=O)N[C@@H](CC(C)C)C(=O)N[C@@H](C)C(=O)N[C@@H](C)C(=O)N[C@@H](CCCNC(=N)N)C(=O)N[C@@H](CC(=O)O)C(=O)N[C@@H](Cc1ccccc1)C(=O)N[C@H](C(=O)N[C@@H](CC(N)=O)C(=O)N[C@@H](Cc1c[nH]c2ccccc12)C(=O)N[C@@H](CC(C)C)C(=O)N[C@@H](CC(C)C)C(=O)N[C@@H](CCC(N)=O)C(=O)N[C@H](C(=O)N[C@@H](CCCCN)C(N)=O)[C@@H](C)O)C(C)C)C(C)C [GL-0002],profile of collagen maturity versus concentration,Murine MC3T3-E1 cells,biphasic profile
CC[C@H](C)[C@H](NC(=O)[C@H](Cc1ccccc1)NC(=O)[C@H](CC(=O)O)NC(=O)[C@H](CCCNC(=N)N)NC(=O)[C@H](C)NC(=O)[C@H](C)NC(=O)[C@H](CC(C)C)NC(=O)[C@H](CC(N)=O)NC(=O)[C@H](CC(=O)O)NC(=O)[C@H](CC(C)C)NC(=O)[C@@H](NC(=O)[C@@H](NC(=O)[C@H](CO)NC(=O)[C@H](Cc1ccc(O)cc1)NC(=O)[C@H](CC(=O)O)NC(=O)[C@H](CO)NC(=O)[C@@H](NC(=O)[C@H](Cc1ccccc1)NC(=O)[C@@H](NC(=O)CNC(=O)[C@H](CC(=O)O)NC(=O)[C@H](C)NC(=O)[C@@H](N)Cc1c[nH]cn1)[C@@H](C)O)[C@@H](C)CC)[C@@H](C)O)[C@@H](C)CC)C(=O)N[C@@H](CC(N)=O)C(=O)N[C@@H](Cc1c[nH]c2ccccc12)C(=O)N[C@@H](CC(C)C)C(=O)N[C@H](C(=O)N[C@@H](CCC(N)=O)C(=O)N[C@H](C(=O)N[C@@H](CCCCN)C(=O)N[C@H](C(=O)N[C@H](C(=O)N[C@@H](CC(=O)O)C(N)=O)[C@@H](C)O)[C@@H](C)CC)[C@@H](C)O)[C@@H](C)CC [Co-3],EC50,[1],0.0194 nM
same,Interpretation of combination index on collagen maturity at EC50,"[1]; 69 pM, t-test vs additivity 1.0±0.15",Additive (CI 0.85-1.15: additive)
same,Interpretation of combination index on collagen maturity at […] EC50,"[1]; 100 pM, t-test vs additivity 1.0±0.15",Additive (CI 0.85-1.15: additive)
same,Emax for dose-effect curves on collagen maturity,"[1]; MC3T3-E1, day 14",121.8%
same,effect on collagen maturity index,"[1]; MC3T3-E1, vs cultures without peptide (FIG. 20)",very modest
same,Cl at […] EC50 (combination index on collagen maturity),"[1]; at […] mean EC50 of GIP and GLP-2, 100 pM, Chou & Talalay, mean ± SD",1.79 ± 2.20
same,Cl at EC50 (combination index on collagen maturity),"[1]; at mean EC50 of GIP and GLP-2, 69 pM, Chou & Talalay, mean ± SD",1.29 ± 1.65
same,"Emax, maximum inhibitory effect on osteoclastogenesis","Murine Raw 264.7 cells; Raw 264.7, * data obtained in previous experiments",37.88%
same,Cl at EC50 of GIP and GLP-2 (combination index for osteoclastogenesis),"Murine Raw 264.7 cells; at 36.8 pM, Chou & Talalay",48.00
same,Interpretation of combination index for osteoclastogenesis,"Murine Raw 264.7 cells; at EC50 of GIP and GLP-2, 36.8 pM",Very strong antagonism (CI>10: very strong antagonism)
CSCC[C@H](NC(=O)[C@H](CC(=O)O)NC(=O)[C@H](CO)NC(=O)[C@@H](NC(=O)[C@H](Cc1ccccc1)NC(=O)[C@H](CO)NC(=O)CNC(=O)[C@H](CCC(=O)O)NC(=O)CNC(=O)[C@@H](N)Cc1c[nH]cn1)C(C)C)C(=O)N[C@@H](CO)C(=O)N[C@H](C(=O)N[C@H](C(=O)N[C@@H](CC(C)C)C(=O)N[C@@H](CC(=O)O)C(=O)N[C@@H](CCCCN)C(=O)N[C@@H](CC(C)C)C(=O)N[C@@H](C)C(=O)N[C@@H](C)C(=O)N[C@@H](CCCNC(=N)N)C(=O)N[C@@H](CC(=O)O)C(=O)N[C@@H](Cc1ccccc1)C(=O)N[C@H](C(=O)N[C@@H](CC(N)=O)C(=O)N[C@@H](Cc1c[nH]c2ccccc12)C(=O)N[C@@H](CC(C)C)C(=O)N[C@@H](CC(C)C)C(=O)N[C@@H](CCC(N)=O)C(=O)N[C@H](C(=O)N[C@@H](CCCCN)C(N)=O)[C@@H](C)O)C(C)C)C(C)C)C(C)C [GL-0004],profile of collagen maturity versus concentration,Murine MC3T3-E1 cells,biphasic profile
